Measurements published in ChEMBL document CHEMBL1139590, “Design, synthesis, and biological evaluation of novel human 5'-deoxy-5'-methylthioadenosine phosphorylase (MTAP) substrates” (Bioorg Med Chem Lett, 2005).
Values belong to the molecule of their own block, whether it stands above or below them.

What was measured:
[1] = biological target: T1, S-methyl-5'-thioadenosine phosphorylase (Homo sapiens) (UniProt Q13126); assay: Ratio of Kcat to Km against human Methylthioadenosine phosphorylase
T1 sequence (whole entry): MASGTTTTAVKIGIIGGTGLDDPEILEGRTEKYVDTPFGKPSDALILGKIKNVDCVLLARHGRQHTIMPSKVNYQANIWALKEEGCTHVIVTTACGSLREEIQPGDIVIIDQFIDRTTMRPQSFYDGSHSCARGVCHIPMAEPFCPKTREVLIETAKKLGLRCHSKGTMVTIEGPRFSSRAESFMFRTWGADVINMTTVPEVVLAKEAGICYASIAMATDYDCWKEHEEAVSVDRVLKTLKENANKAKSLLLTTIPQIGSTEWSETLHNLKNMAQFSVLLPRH

[2] = biological target: T1, S-methyl-5'-thioadenosine phosphorylase (Homo sapiens); assay: Kcat against human methylthioadenosine phosphorylase expressed in Escherichia coli BL21 DE3 cells
[3] = substrate: Nc1ncnc2c1ncn2[C@@H]1O[C@H](CSc2ncc[nH]2)[C@@H](O)[C@H]1O; assay: (§1) Km against human methylthioadenosine phosphorylase expressed in Escherichia coli BL21 DE3 cells
[4] = substrate: Nc1ncnc2c1ncn2[C@@H]1O[C@H](CNc2ccccc2)[C@@H](O)[C@H]1O; assay: as §1
[5] = substrate: COc1ccc(SC[C@H]2O[C@@H](n3cnc4c(N)ncnc43)[C@H](O)[C@@H]2O)cc1; assay: as §1
[6] = substrate: Nc1ncnc2c1ncn2[C@@H]1O[C@H](CSC2CCCCC2)[C@@H](O)[C@H]1O; assay: as §1
[7] = substrate: Nc1ncnc2c1ncn2[C@@H]1O[C@H](CSCCc2ccccc2)[C@@H](O)[C@H]1O; assay: as §1
[8] = substrate: CSC[C@H]1O[C@@H](n2cnc3c(N)ncnc32)C[C@@H]1O; assay: as §1
[9] = substrate: CC(C)CSC[C@H]1O[C@@H](n2cnc3c(N)ncnc32)[C@H](O)[C@@H]1O; assay: as §1
[10] = substrate: C[C@H]1O[C@@H](n2cnc3c(N)ncnc32)[C@H](O)[C@@H]1O; assay: as §1
[11] = substrate: CCSC[C@H]1O[C@@H](n2cnc3c(N)ncnc32)[C@H](O)[C@@H]1O; assay: as §1
[12] = substrate: Cc1cccc(SC[C@H]2O[C@@H](n3cnc4c(N)ncnc43)[C@H](O)[C@@H]2O)c1; assay: as §1
[13] = substrate: Cc1ccccc1SC[C@H]1O[C@@H](n2cnc3c(N)ncnc32)[C@H](O)[C@@H]1O; assay: as §1
[14] = substrate: CCCCSC[C@H]1O[C@@H](n2cnc3c(N)ncnc32)[C@H](O)[C@@H]1O; assay: as §1
[15] = substrate: Cc1ccc(SC[C@H]2O[C@@H](n3cnc4c(N)ncnc43)[C@H](O)[C@@H]2O)cc1; assay: as §1
[16] = substrate: CSC[C@H]1O[C@@H](n2cnc3c(N)ncnc32)[C@H](N)[C@@H]1O; assay: as §1
[17] = substrate: Nc1ncnc2c1ncn2[C@@H]1O[C@H](CSc2ccc3ccccc3n2)[C@@H](O)[C@H]1O; assay: as §1
[18] = substrate: Nc1ncnc2c1ncn2[C@@H]1O[C@H](CSCc2ccccc2)[C@@H](O)[C@H]1O; assay: as §1
[19] = substrate: Nc1ncnc2c1ncn2[C@@H]1O[C@H](CSC2CCCC2)[C@@H](O)[C@H]1O; assay: as §1
[20] = substrate: CSC[C@H]1O[C@@H](n2cnc3c(N)ncnc32)C(N=[N+]=[N-])[C@@H]1O; assay: as §1
[21] = substrate: Nc1ncnc2c1ncn2[C@@H]1O[C@H](CCc2ccccc2)[C@@H](O)[C@H]1O; assay: as §1
[22] = substrate: Nc1ncnc2c1ncn2[C@@H]1O[C@H](COc2ccccc2)[C@@H](O)[C@H]1O; assay: as §1
[23] = substrate: Nc1ncnc2c1ncn2[C@@H]1O[C@H](CSc2ccccc2)[C@@H](O)[C@H]1O; assay: as §1
[24] = substrate: Nc1ncnc2c1ncn2[C@@H]1O[C@H](CSc2ccc(C(F)(F)F)cc2)[C@@H](O)[C@H]1O; assay: as §1
[25] = substrate: CC(C)CCSC[C@H]1O[C@@H](n2cnc3c(N)ncnc32)[C@H](O)[C@@H]1O; assay: as §1
[26] = substrate: CCC(C)CSC[C@H]1O[C@@H](n2cnc3c(N)ncnc32)[C@H](O)[C@@H]1O; assay: as §1
[27] = substrate: CSC[C@@H]1C[C@@H](O)[C@H](n2cnc3c(N)ncnc32)O1; assay: as §1
[28] = substrate: Nc1ncnc2c1ncn2[C@@H]1O[C@H](CSCCO)[C@@H](O)[C@H]1O; assay: as §1
[29] = substrate: CC(C)(C)SC[C@H]1O[C@@H](n2cnc3c(N)ncnc32)[C@H](O)[C@@H]1O; assay: as §1
[30] = substrate: Nc1ncnc2c1ncn2[C@@H]1O[C@H](CSc2ccccn2)[C@@H](O)[C@H]1O; assay: as §1
[31] = substrate: Nc1ncnc2c1ncn2[C@@H]1O[C@H](CSCCc2ccccn2)[C@@H](O)[C@H]1O; assay: as §1
[32] = substrate: Nc1ncnc2c1ncn2[C@@H]1O[C@H](CSc2nccs2)[C@@H](O)[C@H]1O; assay: as §1
[33] = substrate: Nc1ncnc2c1ncn2[C@@H]1O[C@H](CSc2ccncc2)[C@@H](O)[C@H]1O; assay: as §1

Molecule: CSC[C@H]1O[C@@H](n2cnc3c(N)ncnc32)C(N=[N+]=[N-])[C@@H]1O (stereo partly drawn)
Ratio [1]: 1.1e-05 µM⁻¹ s⁻¹ | K cat [2]: 0.04 s⁻¹

Molecule: Nc1ncnc2c1ncn2[C@@H]1O[C@H](CSC2CCCCC2)[C@@H](O)[C@H]1O
Ratio [1]: 0.45 µM⁻¹ s⁻¹ | K cat [2]: 1.57 s⁻¹

Molecule: CSC[C@H]1O[C@@H](n2cnc3c(N)ncnc32)C[C@@H]1O
Ratio [1]: 0.09 µM⁻¹ s⁻¹ | K cat [2]: 0.28 s⁻¹

Molecule: Nc1ncnc2c1ncn2[C@@H]1O[C@H](CSCCc2ccccn2)[C@@H](O)[C@H]1O
Ratio [1]: 0.09 µM⁻¹ s⁻¹ | K cat [2]: 1.01 s⁻¹

Molecule: CCCCSC[C@H]1O[C@@H](n2cnc3c(N)ncnc32)[C@H](O)[C@@H]1O
Ratio [1]: 1.48 µM⁻¹ s⁻¹ | K cat [2]: 5.9 s⁻¹

Molecule: CC(C)CCSC[C@H]1O[C@@H](n2cnc3c(N)ncnc32)[C@H](O)[C@@H]1O
Ratio [1]: 1.96 µM⁻¹ s⁻¹ | K cat [2]: 5.5 s⁻¹

Molecule: CC(C)CSC[C@H]1O[C@@H](n2cnc3c(N)ncnc32)[C@H](O)[C@@H]1O
Ratio [1]: 0.74 µM⁻¹ s⁻¹ | K cat [2]: 2.3 s⁻¹

Molecule: CSC[C@H]1O[C@@H](n2cnc3c(N)ncnc32)[C@H](N)[C@@H]1O
Ratio [1]: 0.022 µM⁻¹ s⁻¹ | K cat [2]: 0.67 s⁻¹

Molecule: Nc1ncnc2c1ncn2[C@@H]1O[C@H](CSCCO)[C@@H](O)[C@H]1O
Ratio [1]: 0.058 µM⁻¹ s⁻¹ | K cat [2]: 1.46 s⁻¹

Molecule: Nc1ncnc2c1ncn2[C@@H]1O[C@H](CSC2CCCC2)[C@@H](O)[C@H]1O
Ratio [1]: 0.47 µM⁻¹ s⁻¹ | K cat [2]: 1.5 s⁻¹

Molecule: CSC[C@H]1O[C@@H](n2cnc3c(N)ncnc32)C(F)[C@@H]1O (stereo partly drawn)
K cat [2]: 0.0004 s⁻¹

Molecule: CCC(C)CSC[C@H]1O[C@@H](n2cnc3c(N)ncnc32)[C@H](O)[C@@H]1O (stereo partly drawn)
Ratio [1]: 0.84 µM⁻¹ s⁻¹ | K cat [2]: 4.2 s⁻¹

Molecule: CSC[C@@H]1C[C@@H](O)[C@H](n2cnc3c(N)ncnc32)O1
Ratio [1]: 0.001 µM⁻¹ s⁻¹ | K cat [2]: 0.004 s⁻¹

Molecule: C[C@H]1O[C@@H](n2cnc3c(N)ncnc32)[C@H](O)[C@@H]1O
Ratio [1]: 0.8 µM⁻¹ s⁻¹ | K cat [2]: 4.8 s⁻¹

B1: S-methyl-5'-thioadenosine phosphorylase (Homo sapiens), Q13126 (protein)
chain: MASGTTTTAVKIGIIGGTGLDDPEILEGRTEKYVDTPFGKPSDALILGKIKNVDCVLLARHGRQHTIMPSKVNYQANIWALKEEGCTHVIVTTACGSLREEIQPGDIVIIDQFIDRTTMRPQSFYDGSHSCARGVCHIPMAEPFCPKTREVLIETAKKLGLRCHSKGTMVTIEGPRFSSRAESFMFRTWGADVINMTTVPEVVLAKEAGICYASIAMATDYDCWKEHEEAVSVDRVLKTLKENANKAKSLLLTTIPQIGSTEWSETLHNLKNMAQFSVLLPRH
Km [3]: 9 µM | Km [4]: 8.5 µM | Km [5]: 7 µM | Km [6]: 3.5 µM | Km [7]: 5 µM | Km [8]: 3.1 µM | Km [9]: 3.1 µM | Km [10]: 6 µM | Km [11]: 1.8 µM | Km [12]: 2 µM | Km [13]: 5.6 µM | Km [14]: 4 µM | Km [15]: 1.5 µM | Km [16]: 30 µM | Km [17]: 6.9 µM | Km [18]: 4.6 µM | Km [19]: 3.2 µM | Km [20]: 3600 µM | Km [21]: 1.3 µM | Km [22]: 12 µM | Km [23]: 3 µM | Km [24]: 1.7 µM | Km [25]: 2.8 µM | Km [26]: 5 µM | Km [27]: 3.9 µM | Km [28]: 25 µM | Km [29]: 17 µM | Km [30]: 5.2 µM | Km [31]: 10.2 µM | Km [32]: 3.4 µM | Km [33]: 0.88 µM

Continued, values first:

Ratio [1]: 0.0001 µM⁻¹ s⁻¹ | K cat [2]: 0.0065 s⁻¹
Molecule: CSC[C@H]1O[C@@H](n2cnc3c(N)ncnc32)[C@H](O)[C@@H]1O (stereo in doubt; 7)

Ratio [1]: 0.46 µM⁻¹ s⁻¹ | K cat [2]: 3.16 s⁻¹
Molecule: Nc1ncnc2c1ncn2[C@@H]1O[C@H](CSc2ccc3ccccc3n2)[C@@H](O)[C@H]1O

Ratio [1]: 0.42 µM⁻¹ s⁻¹ | K cat [2]: 3.8 s⁻¹
Molecule: Nc1ncnc2c1ncn2[C@@H]1O[C@H](CSc2ncc[nH]2)[C@@H](O)[C@H]1O

Ratio [1]: 0.05 µM⁻¹ s⁻¹ | K cat [2]: 0.85 s⁻¹
Molecule: CC(C)(C)SC[C@H]1O[C@@H](n2cnc3c(N)ncnc32)[C@H](O)[C@@H]1O

Ratio [1]: 0.17 µM⁻¹ s⁻¹ | K cat [2]: 0.3 s⁻¹
Molecule: Nc1ncnc2c1ncn2[C@@H]1O[C@H](CSc2ccc(C(F)(F)F)cc2)[C@@H](O)[C@H]1O

Ratio [1]: 0.26 µM⁻¹ s⁻¹ | K cat [2]: 0.23 s⁻¹
Molecule: Nc1ncnc2c1ncn2[C@@H]1O[C@H](CSc2ccncc2)[C@@H](O)[C@H]1O

Ratio [1]: 0.24 µM⁻¹ s⁻¹ | K cat [2]: 2.02 s⁻¹
Molecule: Nc1ncnc2c1ncn2[C@@H]1O[C@H](CNc2ccccc2)[C@@H](O)[C@H]1O

Ratio [1]: 0.43 µM⁻¹ s⁻¹ | K cat [2]: 2.14 s⁻¹
Molecule: Nc1ncnc2c1ncn2[C@@H]1O[C@H](CSCCc2ccccc2)[C@@H](O)[C@H]1O

Ratio [1]: 0.09 µM⁻¹ s⁻¹ | K cat [2]: 1.11 s⁻¹
Molecule: Nc1ncnc2c1ncn2[C@@H]1O[C@H](COc2ccccc2)[C@@H](O)[C@H]1O

Ratio [1]: 0.66 µM⁻¹ s⁻¹ | K cat [2]: 3.44 s⁻¹
Molecule: Nc1ncnc2c1ncn2[C@@H]1O[C@H](CSc2ccccn2)[C@@H](O)[C@H]1O

Ratio [1]: 1.2 µM⁻¹ s⁻¹ | K cat [2]: 2.4 s⁻¹
Molecule: Cc1cccc(SC[C@H]2O[C@@H](n3cnc4c(N)ncnc43)[C@H](O)[C@@H]2O)c1

Ratio [1]: 0.93 µM⁻¹ s⁻¹ | K cat [2]: 1.4 s⁻¹
Molecule: Cc1ccc(SC[C@H]2O[C@@H](n3cnc4c(N)ncnc43)[C@H](O)[C@@H]2O)cc1

Ratio [1]: 1.6 µM⁻¹ s⁻¹ | K cat [2]: 2.9 s⁻¹
Molecule: CCSC[C@H]1O[C@@H](n2cnc3c(N)ncnc32)[C@H](O)[C@@H]1O

Ratio [1]: 0.53 µM⁻¹ s⁻¹ | K cat [2]: 2.5 s⁻¹
Molecule: Nc1ncnc2c1ncn2[C@@H]1O[C@H](CSCc2ccccc2)[C@@H](O)[C@H]1O

Ratio [1]: 0.5 µM⁻¹ s⁻¹ | K cat [2]: 1.5 s⁻¹
Molecule: Nc1ncnc2c1ncn2[C@@H]1O[C@H](CSc2ccccc2)[C@@H](O)[C@H]1O

Ratio [1]: 0.11 µM⁻¹ s⁻¹ | K cat [2]: 0.8 s⁻¹
Molecule: COc1ccc(SC[C@H]2O[C@@H](n3cnc4c(N)ncnc43)[C@H](O)[C@@H]2O)cc1

Ratio [1]: 3.5 µM⁻¹ s⁻¹ | K cat [2]: 4.6 s⁻¹
Molecule: Nc1ncnc2c1ncn2[C@@H]1O[C@H](CCc2ccccc2)[C@@H](O)[C@H]1O

Ratio [1]: 0.03 µM⁻¹ s⁻¹ | K cat [2]: 0.18 s⁻¹
Molecule: Cc1ccccc1SC[C@H]1O[C@@H](n2cnc3c(N)ncnc32)[C@H](O)[C@@H]1O

Ratio [1]: 0.73 µM⁻¹ s⁻¹ | K cat [2]: 2.49 s⁻¹
Molecule: Nc1ncnc2c1ncn2[C@@H]1O[C@H](CSc2nccs2)[C@@H](O)[C@H]1O

Ratio [1]: 3.2 µM⁻¹ s⁻¹ | K cat [2]: 4.6 s⁻¹
Molecule: CSC[C@H]1O[C@@H](n2cnc3c(N)ncnc32)[C@H](O)[C@@H]1O (stereo in doubt; 1)
